Key:
MCF7 = assay: Growth inhibition of human MCF7 cells incubated for 48 hrs by sulforhodamine B assay; type: functional; details: MCF7, 48 h
[1] = Growth inhibition of human RPMI8226 cells incubated for 48 hrs by sulforhodamine B assay; type: functional; details: RPMI-8226, 48 h
NCI-H226 = assay: Growth inhibition of human NCI-H226 cells incubated for 48 hrs by sulforhodamine B assay; type: functional; details: NCI-H226, 48 h
[2] = Growth inhibition of human SF295 cells incubated for 48 hrs by sulforhodamine B assay; type: functional; details: SF-295, 48 h
[3] = Growth inhibition of human SNB75 cells incubated for 48 hrs by sulforhodamine B assay; type: functional; details: SNB-75, 48 h
[4] = Selectivity ratio of IC50 for human GM00637 cells to IC50 for human MCF7 cells; type: ADME, cell-based; details: GM00637 cells versus MCF7 cells, read-out: Ratio IC50
K562 = assay: Growth inhibition of human K562 cells incubated for 48 hrs by sulforhodamine B assay; type: functional; details: K562, 48 h
MDA-MB-468 = assay: Growth inhibition of human MDA-MB-468 cells incubated for 48 hrs by sulforhodamine B assay; type: functional; details: MDA-MB-468, 48 h
SN12C = assay: Growth inhibition of human SN12C cells incubated for 48 hrs by sulforhodamine B assay; type: functional
U-251 = assay: Growth inhibition of human U251 cells incubated for 48 hrs by sulforhodamine B assay; type: functional; details: U-251, 48 h
[5] = Growth inhibition of human SF539 cells incubated for 48 hrs by sulforhodamine B assay; type: functional; details: SF-539, 48 h
[6] = Growth inhibition of human HCT116 cells incubated for 48 hrs by sulforhodamine B assay; type: functional; details: HCT-116, 48 h
[7] = Growth inhibition of human LOXIMVI cells incubated for 48 hrs by sulforhodamine B assay; type: functional; details: LOX IMVI
[8] = Growth inhibition of human DU145 cells incubated for 48 hrs by sulforhodamine B assay; type: functional; details: DU-145, 48 h
NCI-H322M = assay: Growth inhibition of human NCI-H322M cells incubated for 48 hrs by sulforhodamine B assay; type: functional
[9] = Growth inhibition of human HOP62 cells incubated for 48 hrs by sulforhodamine B assay; type: functional; details: HOP-62, 48 h
A549 = assay: Growth inhibition of human A549/ATCC cells incubated for 48 hrs by sulforhodamine B assay; type: functional; details: A549, 48 h
[10] = Growth inhibition of human BT549 cells incubated for 48 hrs by sulforhodamine B assay; type: functional; details: BT-549, 48 h
CCRF-CEM = assay: Growth inhibition of human CCRF-CEM cells incubated for 48 hrs by sulforhodamine B assay; type: functional
[11] = Growth inhibition of human UACC257 cells incubated for 48 hrs by sulforhodamine B assay; type: functional; details: UACC-257, 48 h
NCI-H522 = assay: Growth inhibition of human NCI-H522 cells incubated for 48 hrs by sulforhodamine B assay; type: functional; details: NCI-H522, 48 h
T47D = assay: Growth inhibition of human T47D cells incubated for 48 hrs by sulforhodamine B assay; type: functional
[12] = Growth inhibition of human HCT15 cells incubated for 48 hrs by sulforhodamine B assay; type: functional; details: HCT-15, 48 h
[13] = Growth inhibition of human OVCAR3 cells incubated for 48 hrs by sulforhodamine B assay; type: functional; details: OVCAR-3, 48 h
[14] = Growth inhibition of human MOLT4 cells incubated for 48 hrs by sulforhodamine B assay; type: functional; details: MOLT-4, 48 h
M14 = assay: Growth inhibition of human M14 cells incubated for 48 hrs by sulforhodamine B assay; type: functional; details: M14, 48 h
[15] = read-out: pLC50 (the source's name) (converted)

## O=c1ccc2nc(C(F)(F)F)nn(-c3ccccc3)c-2c1
MCF7
  GI50: 0.49 µM
MCF7; [15]
  CC50: > 100 µM
MCF7; read-out: pTGI (converted)
  TGI: 4.07 µM
[1]
  GI50: 4.79 µM
[1]; [15]
  CC50: > 100 µM
[1]; read-out: pTGI (converted)
  TGI: 77.6 µM
NCI-H226
  GI50: 13.2 µM
NCI-H226; [15]
  CC50: 70.8 µM
NCI-H226; read-out: pTGI (converted)
  TGI: 30.2 µM
[2]
  GI50: 22.9 µM
[2]; [15]
  CC50: > 100 µM
[2]; read-out: pTGI (converted)
  TGI: 67.6 µM
[3]
  GI50: 13.2 µM
[3]; [15]
  CC50: 52.5 µM
[3]; read-out: pTGI (converted)
  TGI: 26.3 µM
[4]
  selectivity ratio: 3
K562
  GI50: 2.09 µM
K562; [15]
  CC50: > 100 µM
MDA-MB-468
  GI50: 1.07 µM
MDA-MB-468; [15]
  CC50: 8.32 µM
MDA-MB-468; read-out: pTGI (converted)
  TGI: 2.95 µM
SN12C
  GI50: 7.24 µM
SN12C; [15]
  CC50: > 100 µM
SN12C; read-out: pTGI (converted)
  TGI: 57.5 µM
U-251
  GI50: 13.5 µM
U-251; [15]
  CC50: 60.3 µM
U-251; read-out: pTGI (converted)
  TGI: 28.8 µM
[5]
  GI50: 15.8 µM
[5]; [15]
  CC50: 55 µM
[5]; read-out: pTGI (converted)
  TGI: 29.5 µM
[6]
  GI50: 1.62 µM
[6]; [15]
  CC50: 6.17 µM
[6]; read-out: pTGI (converted)
  TGI: 3.16 µM
[7]
  GI50: 1.58 µM
[7]; [15]
  CC50: 6.61 µM
[7]; read-out: pTGI (converted)
  TGI: 3.24 µM
[8]
  GI50: 1.78 µM
[8]; [15]
  CC50: 5.62 µM
[8]; read-out: pTGI (converted)
  TGI: 3.16 µM
NCI-H322M
  GI50: 18.6 µM
NCI-H322M; [15]
  CC50: 61.7 µM
NCI-H322M; read-out: pTGI (converted)
  TGI: 33.9 µM
[9]
  GI50: 7.94 µM
[9]; [15]
  CC50: 83.2 µM
[9]; read-out: pTGI (converted)
  TGI: 27.5 µM
A549
  GI50: 19.5 µM
A549; [15]
  CC50: 79.4 µM
A549; read-out: pTGI (converted)
  TGI: 38.9 µM
[10]
  GI50: 12.3 µM
[10]; [15]
  CC50: 50.1 µM
[10]; read-out: pTGI (converted)
  TGI: 24.5 µM
CCRF-CEM
  GI50: 2.34 µM
CCRF-CEM; [15]
  CC50: > 100 µM
[11]
  GI50: 1.91 µM
[11]; [15]
  CC50: 8.51 µM
[11]; read-out: pTGI (converted)
  TGI: 4.07 µM
NCI-H522
  GI50: 1.51 µM
NCI-H522; [15]
  CC50: 6.03 µM
NCI-H522; read-out: pTGI (converted)
  TGI: 3.02 µM
T47D
  GI50: 1.7 µM
T47D; [15]
  CC50: > 100 µM
T47D; read-out: pTGI (converted)
  TGI: 6.61 µM
[12]
  GI50: 2.29 µM
[12]; [15]
  CC50: 8.13 µM
[12]; read-out: pTGI (converted)
  TGI: 3.39 µM
[13]
  GI50: 1.58 µM
[13]; [15]
  CC50: 5.5 µM
[13]; read-out: pTGI (converted)
  TGI: 2.95 µM
[14]
  GI50: 2.14 µM
[14]; [15]
  CC50: > 100 µM
[14]; read-out: pTGI (converted)
  TGI: 9.12 µM
M14
  GI50: 5.75 µM
M14; [15]
  CC50: 45.7 µM
M14; read-out: pTGI (converted)
  TGI: 19.1 µM

Source: ChEMBL document CHEMBL3813672, “Discovery of anti-cancer activity for benzo[1,2,4]triazin-7-ones: Very strong correlation to pleurotin and thioredoxin reductase inhibition” (Bioorg Med Chem, 2016)
